Measured values as given in patent publication US10870638B2, “Pyridazinone compound or its salt, and herbicide containing it” (ISHIHARA SANGYO KAISHA, LTD., priority 2016, dated 2020).

Experiments:
Assay in all cases: Test Example 1: foliar treatment, growth inhibition rate on 14th day
Assay type in all cases: in vivo
Details in all cases: active ingredient amount 31 g/ha, 14th day after application
rice (Oryza sativa L.) = system: rice (Oryza sativa L.)
Text: (§1) Upland field soil was put into a 1/300,000 hectare pot, and seeds of various plants were sown. When the respective plants reached predetermined leaf stage ((1) barnyardgrass (Echinochloa crus-[…].): 0.5 to 2.9 leaf stage, (2) crabgrass (Digitaria sanquinalis L.): 0.5 to 3.0 leaf stage, (3) green foxtail (Setaria viridis L.): 0.5 to 3.2 leaf stage, (4) wild oat (Avena fatua L.): 0.4 to 1.2 leaf stage, (5) italian ryegrass (Lolium multiflorum Lam.): 0.4 to 2.0 leaf stage, (6) redroot pigweed (Amaranthus retroflexus L.): cotyledon stage to 2.2 leaf stage, (7) rice (Oryza sativa L.): 0.2 to 2.7 leaf stage, (8) corn (Zea mays L.): 1.7 to 3.6 leaf stage, (9) wheat (Triticum aestivum L.): 1.3 to 2.3 leaf stage, (10) soybean (Glycine max Merr.); primary leaf stage), wettable powders or emulsifiable concentrates of the compounds of the present invention prepared in accordance with a conventional preparation method, were weighed so as to achieve the prescribed active ingredient amounts, and diluted with water in an amount corresponding to 1,000 liters per 1 hectare (containing 0.1 vol % of an agricultural spreader (surfactant WK manufactured by MARUWA BIOCHEMICAL Co., Ltd.)), and the spray solutions thus prepared were applied for foliar treatment by a small sprayer. On the 14th day after the application, the state of growth of the respective plants was visually observed, and the herbicidal effect was evaluated by a growth inhibition rate (%) of 0 (equivalent to the non-treated area) to 100 (complete kill).

[1] = system: crabgrass (Digitaria sanquinalis L.)
Text: as §1

[2] = system: wild oat (Avena fatua L.)
Text: as §1

[3] = system: redroot pigweed (Amaranthus retroflexus L.)
Text: as §1

[4] = system: wheat (Triticum aestivum L.)
Text: as §1

corn (Zea mays L.) = system: corn (Zea mays L.)
Text: as §1

[5] = system: italian ryegrass (Lolium multiflorum Lam.)
Text: as §1

[6] = system: barnyardgrass (Echinochloa crus-qalli L.)
Text: as §1

[7] = system: soybean (Glycine max Merr.)
Text: as §1

[8] = system: green foxtail (Setaria viridis L.)
Text: as §1

Structure (SMILES): COc1ccc(Oc2ncc(C(F)(F)F)cc2Cl)cc1-c1c(O)c(C)nn(C)c1=O [1-10]
- Growth inhibition rate (%) Rice (rice (Oryza sativa L.)): 0%
- Growth inhibition rate (%) Crabgrass [1]: 90%
- Growth inhibition rate (%) Wild oat [2]: 20%
- Growth inhibition rate (%) Redroot pigweed [3]: 0%
- Growth inhibition rate (%) Wheat [4]: 0%
- Growth inhibition rate (%) Corn (corn (Zea mays L.)): 60%
- Growth inhibition rate (%) Italian ryegrass [5]: 0%
- Growth inhibition rate (%) Barnyardgrass [6]: 70%
- Growth inhibition rate (%) Soybean [7]: 20%
- Growth inhibition rate (%) Green foxtail [8]: 90%

Structure (SMILES): Cc1ccc(Oc2ncc(C(F)(F)F)cc2Cl)c(C)c1-c1c(O)c(C)nn(C)c1=O [1-13]
- Growth inhibition rate (%) Rice (rice (Oryza sativa L.)): 40%
- Growth inhibition rate (%) Crabgrass [1]: 95%
- Growth inhibition rate (%) Wild oat [2]: 75%
- Growth inhibition rate (%) Redroot pigweed [3]: 0%
- Growth inhibition rate (%) Wheat [4]: 20%
- Growth inhibition rate (%) Corn (corn (Zea mays L.)): 88%
- Growth inhibition rate (%) Italian ryegrass [5]: 70%
- Growth inhibition rate (%) Barnyardgrass [6]: 100%
- Growth inhibition rate (%) Soybean [7]: 0%
- Growth inhibition rate (%) Green foxtail [8]: 100%

Structure (SMILES): COC(=O)OC(C)Oc1c(C)nn(C)c(=O)c1-c1cc(Oc2ncc(C(F)(F)F)cc2Cl)ccc1C (stereo not shown) [1-130]
- Growth inhibition rate (%) Rice (rice (Oryza sativa L.)): 30%
- Growth inhibition rate (%) Crabgrass [1]: 99%
- Growth inhibition rate (%) Wild oat [2]: 98%
- Growth inhibition rate (%) Redroot pigweed [3]: 0%
- Growth inhibition rate (%) Wheat [4]: 80%
- Growth inhibition rate (%) Corn (corn (Zea mays L.)): 95%
- Growth inhibition rate (%) Italian ryegrass [5]: 93%
- Growth inhibition rate (%) Barnyardgrass [6]: 100%
- Growth inhibition rate (%) Soybean [7]: 0%
- Growth inhibition rate (%) Green foxtail [8]: 99%

Structure (SMILES): CCOC(=O)OC(C)Oc1c(C)nn(C)c(=O)c1-c1cc(Oc2ncc(C(F)(F)F)cc2Cl)ccc1C (stereo not shown) [1-131]
- Growth inhibition rate (%) Rice (rice (Oryza sativa L.)): 30%
- Growth inhibition rate (%) Crabgrass [1]: 100%
- Growth inhibition rate (%) Wild oat [2]: 93%
- Growth inhibition rate (%) Redroot pigweed [3]: 0%
- Growth inhibition rate (%) Wheat [4]: 60%
- Growth inhibition rate (%) Corn (corn (Zea mays L.)): 80%
- Growth inhibition rate (%) Italian ryegrass [5]: 83%
- Growth inhibition rate (%) Barnyardgrass [6]: 100%
- Growth inhibition rate (%) Soybean [7]: 0%
- Growth inhibition rate (%) Green foxtail [8]: 93%

Structure (SMILES): Cc1ccc(Oc2ncc(C(F)(F)F)cc2Cl)cc1-c1c(OC(C)OC(=O)OC(C)C)c(C)nn(C)c1=O (stereo not shown) [1-133]
- Growth inhibition rate (%) Rice (rice (Oryza sativa L.)): 0%
- Growth inhibition rate (%) Crabgrass [1]: 0%
- Growth inhibition rate (%) Wild oat [2]: 40%
- Growth inhibition rate (%) Redroot pigweed [3]: 0%
- Growth inhibition rate (%) Wheat [4]: 0%
- Growth inhibition rate (%) Corn (corn (Zea mays L.)): 0%
- Growth inhibition rate (%) Italian ryegrass [5]: 0%
- Growth inhibition rate (%) Barnyardgrass [6]: 88%
- Growth inhibition rate (%) Soybean [7]: 0%
- Growth inhibition rate (%) Green foxtail [8]: 30%

Structure (SMILES): COCCOCOc1c(C)nn(C)c(=O)c1-c1cc(Oc2ncc(C(F)(F)F)cc2Cl)ccc1C [1-134]
- Growth inhibition rate (%) Rice (rice (Oryza sativa L.)): 88%
- Growth inhibition rate (%) Crabgrass [1]: 99%
- Growth inhibition rate (%) Wild oat [2]: 99%
- Growth inhibition rate (%) Redroot pigweed [3]: 0%
- Growth inhibition rate (%) Wheat [4]: 98%
- Growth inhibition rate (%) Corn (corn (Zea mays L.)): 93%
- Growth inhibition rate (%) Italian ryegrass [5]: 98%
- Growth inhibition rate (%) Barnyardgrass [6]: 98%
- Growth inhibition rate (%) Soybean [7]: 0%
- Growth inhibition rate (%) Green foxtail [8]: 100%

Structure (SMILES): CCCCC(=O)Oc1c(C)nn(C)c(=O)c1-c1cc(Oc2ncc(C(F)(F)F)cc2Cl)ccc1C [1-135]
- Growth inhibition rate (%) Rice (rice (Oryza sativa L.)): 90%
- Growth inhibition rate (%) Crabgrass [1]: 99%
- Growth inhibition rate (%) Wild oat [2]: 100%
- Growth inhibition rate (%) Redroot pigweed [3]: 0%
- Growth inhibition rate (%) Wheat [4]: 100%
- Growth inhibition rate (%) Corn (corn (Zea mays L.)): 98%
- Growth inhibition rate (%) Italian ryegrass [5]: 100%
- Growth inhibition rate (%) Barnyardgrass [6]: 100%
- Growth inhibition rate (%) Soybean [7]: 0%
- Growth inhibition rate (%) Green foxtail [8]: 100%

Structure (SMILES): Cc1ccc(Oc2ncc(C(F)(F)F)cc2Cl)cc1-c1c(OC(=O)c2nn(C)cc2C)c(C)nn(C)c1=O [1-136]
- Growth inhibition rate (%) Rice (rice (Oryza sativa L.)): 25%
- Growth inhibition rate (%) Crabgrass [1]: 98%
- Growth inhibition rate (%) Wild oat [2]: 98%
- Growth inhibition rate (%) Redroot pigweed [3]: 0%
- Growth inhibition rate (%) Wheat [4]: 90%
- Growth inhibition rate (%) Corn (corn (Zea mays L.)): 99%
- Growth inhibition rate (%) Italian ryegrass [5]: 98%
- Growth inhibition rate (%) Barnyardgrass [6]: 100%
- Growth inhibition rate (%) Soybean [7]: 0%
- Growth inhibition rate (%) Green foxtail [8]: 100%

Structure (SMILES): CCc1nn(C)c(=O)c(-c2cc(Oc3ncc(C(F)(F)F)cc3Cl)ccc2C)c1OC(C)=O [1-137]
- Growth inhibition rate (%) Rice (rice (Oryza sativa L.)): 85%
- Growth inhibition rate (%) Crabgrass [1]: 75%
- Growth inhibition rate (%) Wild oat [2]: 93%
- Growth inhibition rate (%) Redroot pigweed [3]: 0%
- Growth inhibition rate (%) Wheat [4]: 85%
- Growth inhibition rate (%) Corn (corn (Zea mays L.)): 95%
- Growth inhibition rate (%) Italian ryegrass [5]: 93%
- Growth inhibition rate (%) Barnyardgrass [6]: 100%
- Growth inhibition rate (%) Soybean [7]: 15%
- Growth inhibition rate (%) Green foxtail [8]: 80%

Structure (SMILES): CCc1nn(C)c(=O)c(-c2cc(Oc3ncc(C(F)(F)F)cc3Cl)ccc2C)c1OCOC [1-138]
- Growth inhibition rate (%) Rice (rice (Oryza sativa L.)): 0%
- Growth inhibition rate (%) Crabgrass [1]: 85%
- Growth inhibition rate (%) Wild oat [2]: 90%
- Growth inhibition rate (%) Redroot pigweed [3]: 0%
- Growth inhibition rate (%) Wheat [4]: 83%
- Growth inhibition rate (%) Corn (corn (Zea mays L.)): 83%
- Growth inhibition rate (%) Italian ryegrass [5]: 70%
- Growth inhibition rate (%) Barnyardgrass [6]: 100%
- Growth inhibition rate (%) Soybean [7]: 30%
- Growth inhibition rate (%) Green foxtail [8]: 60%

Structure (SMILES): CCc1nn(C)c(=O)c(-c2cc(Oc3ncc(C(F)(F)F)cc3Cl)ccc2C)c1OC(C)OC(=O)OC (stereo not shown) [1-139]
- Growth inhibition rate (%) Rice (rice (Oryza sativa L.)): 20%
- Growth inhibition rate (%) Crabgrass [1]: 80%
- Growth inhibition rate (%) Wild oat [2]: 88%
- Growth inhibition rate (%) Redroot pigweed [3]: 0%
- Growth inhibition rate (%) Wheat [4]: 45%
- Growth inhibition rate (%) Corn (corn (Zea mays L.)): 50%
- Growth inhibition rate (%) Italian ryegrass [5]: 98%
- Growth inhibition rate (%) Barnyardgrass [6]: 100%
- Growth inhibition rate (%) Soybean [7]: 15%
- Growth inhibition rate (%) Green foxtail [8]: 60%

Structure (SMILES): CC(=O)Oc1c(C(F)(F)F)nn(C)c(=O)c1-c1cc(Oc2ncc(C(F)(F)F)cc2Cl)ccc1C [1-142]
- Growth inhibition rate (%) Rice (rice (Oryza sativa L.)): 15%
- Growth inhibition rate (%) Crabgrass [1]: 88%
- Growth inhibition rate (%) Wild oat [2]: 85%
- Growth inhibition rate (%) Redroot pigweed [3]: 20%
- Growth inhibition rate (%) Wheat [4]: 20%
- Growth inhibition rate (%) Corn (corn (Zea mays L.)): 50%
- Growth inhibition rate (%) Italian ryegrass [5]: 20%
- Growth inhibition rate (%) Barnyardgrass [6]: 90%
- Growth inhibition rate (%) Soybean [7]: 40%
- Growth inhibition rate (%) Green foxtail [8]: 40%

Structure (SMILES): Cc1ccc(Nc2ncc(C(F)(F)F)cc2Cl)cc1-c1c(O)c(C)nn(C)c1=O [1-144]
- Growth inhibition rate (%) Rice (rice (Oryza sativa L.)): 20%
- Growth inhibition rate (%) Crabgrass [1]: 10%
- Growth inhibition rate (%) Wild oat [2]: 10%
- Growth inhibition rate (%) Redroot pigweed [3]: 0%
- Growth inhibition rate (%) Wheat [4]: 0%
- Growth inhibition rate (%) Corn (corn (Zea mays L.)): 10%
- Growth inhibition rate (%) Italian ryegrass [5]: 0%
- Growth inhibition rate (%) Barnyardgrass [6]: 30%
- Growth inhibition rate (%) Soybean [7]: 20%
- Growth inhibition rate (%) Green foxtail [8]: 60%

Structure (SMILES): CC(=O)Oc1c(C)nn(C)c(=O)c1-c1cc(N(C)c2ncc(C(F)(F)F)cc2Cl)ccc1C [1-145]
- Growth inhibition rate (%) Rice (rice (Oryza sativa L.)): 0%
- Growth inhibition rate (%) Crabgrass [1]: 90%
- Growth inhibition rate (%) Wild oat [2]: 40%
- Growth inhibition rate (%) Redroot pigweed [3]: 0%
- Growth inhibition rate (%) Wheat [4]: 50%
- Growth inhibition rate (%) Corn (corn (Zea mays L.)): 40%
- Growth inhibition rate (%) Italian ryegrass [5]: 20%
- Growth inhibition rate (%) Barnyardgrass [6]: 93%
- Growth inhibition rate (%) Soybean [7]: 35%
- Growth inhibition rate (%) Green foxtail [8]: 70%

Structure (SMILES): CC(=O)Oc1c(C)nn(C)c(=O)c1-c1cc(Nc2ncc(C(F)(F)F)cc2Cl)ccc1C [1-146]
- Growth inhibition rate (%) Rice (rice (Oryza sativa L.)): 0%
- Growth inhibition rate (%) Crabgrass [1]: 90%
- Growth inhibition rate (%) Wild oat [2]: 88%
- Growth inhibition rate (%) Redroot pigweed [3]: 0%
- Growth inhibition rate (%) Wheat [4]: 85%
- Growth inhibition rate (%) Corn (corn (Zea mays L.)): 75%
- Growth inhibition rate (%) Italian ryegrass [5]: 70%
- Growth inhibition rate (%) Barnyardgrass [6]: 98%
- Growth inhibition rate (%) Soybean [7]: 10%
- Growth inhibition rate (%) Green foxtail [8]: 93%

Structure (SMILES): COC(=O)OC(C)Oc1c(C)nn(C)c(=O)c1-c1cc(Oc2ncc(C(F)(F)F)cc2Cl)c(C)cc1C (stereo not shown) [1-151]
- Growth inhibition rate (%) Rice (rice (Oryza sativa L.)): 65%
- Growth inhibition rate (%) Crabgrass [1]: 99%
- Growth inhibition rate (%) Wild oat [2]: 95%
- Growth inhibition rate (%) Redroot pigweed [3]: 30%
- Growth inhibition rate (%) Wheat [4]: 10%
- Growth inhibition rate (%) Corn (corn (Zea mays L.)): 35%
- Growth inhibition rate (%) Italian ryegrass [5]: 83%
- Growth inhibition rate (%) Barnyardgrass [6]: 99%
- Growth inhibition rate (%) Soybean [7]: 0%
- Growth inhibition rate (%) Green foxtail [8]: 95%

Structure (SMILES): CC(=O)Oc1c(C)nn(C)c(=O)c1-c1cc(Oc2nc3ccc(Cl)cc3s2)ccc1C [Compound 2-132]
- Growth inhibition rate (%) Rice (rice (Oryza sativa L.)): 40%
- Growth inhibition rate (%) Crabgrass [1]: 50%
- Growth inhibition rate (%) Wild oat [2]: 90%
- Growth inhibition rate (%) Wheat [4]: 70%
- Growth inhibition rate (%) Corn (corn (Zea mays L.)): 0%
- Growth inhibition rate (%) Italian ryegrass [5]: 78%
- Growth inhibition rate (%) Barnyardgrass [6]: 90%
- Growth inhibition rate (%) Soybean [7]: 30%
- Growth inhibition rate (%) Green foxtail [8]: 80%
